Results: the NIST ThermoML archive (doi:10.1021/je020191g)
Where “and” joins values, the source holds several entries; their conditions need not be identical. Equal entries are not always repeated.

Experiments:
[1] = 101.33 kPa, Liquid
[2] = xn = mol fraction of the nth substance listed; conditions: 101.33 kPa, Liquid

C1CCNC1 [pyrrolidine]
[1]
Conditions | mass density [kg/m3]
298.15 K | 854.6
323.15 K | 833.7

C1CCNC1 [pyrrolidine] + O
mass density, [2]
Conditions | 298.15 K | 323.15 K
x1 = 0.099 | 976 kg/m3 | 960 kg/m3
x1 = 0.1 | 973.9 kg/m3 | 963.6 kg/m3
x1 = 0.199 | 956.6 kg/m3 | 941.5 kg/m3
x1 = 0.204 | 952.8 kg/m3 | 937.2 kg/m3
x1 = 0.297 | 934.7 kg/m3 | 921.2 kg/m3
x1 = 0.299 | 938.8 kg/m3 | 924.5 kg/m3
x1 = 0.396 | 925.8 kg/m3 | 904 kg/m3
x1 = 0.399 | 925.4 kg/m3 | 907.4 kg/m3
x1 = 0.497 | 912.1 kg/m3 | 891.1 kg/m3
x1 = 0.498 | 911.5 kg/m3 | 891.2 kg/m3
x1 = 0.589 | 901.1 kg/m3 | 883.5 kg/m3
x1 = 0.596 | 900.2 kg/m3 | 879.9 kg/m3
x1 = 0.675 | 893.8 kg/m3 | 871.3 kg/m3
x1 = 0.697 | 893.4 kg/m3 | 868.5 kg/m3
x1 = 0.786 | 879.9 kg/m3 | 858.3 kg/m3
x1 = 0.796 | 877.1 kg/m3 | 858.6 kg/m3
x1 = 0.882 | 865.3 kg/m3 | 843.5 kg/m3
x1 = 0.888 | 865.6 kg/m3 | 845.6 kg/m3
x1 = 0.995 | 852.9 kg/m3 and 856.2 kg/m3 | 834.6 kg/m3 and 832.8 kg/m3

C1COCCN1 [tetrahydro-1,4-oxazine]
[1]
Conditions | mass density [kg/m3]
298.15 K | 996
333.15 K | 965.9

C1COCCN1 [tetrahydro-1,4-oxazine] + O
mass density, [2]
Conditions | 298.15 K | 333.15 K
x1 = 0.1 | 1023.2 kg/m3 and 1010.6 kg/m3 | 1001.2 kg/m3 and 1005.4 kg/m3
x1 = 0.199 | 1031.5 kg/m3 and 1025.9 kg/m3 | 1010.5 kg/m3 and 1006.2 kg/m3
x1 = 0.298 | 1030.9 kg/m3 | 1010.6 kg/m3
x1 = 0.299 | 1029.6 kg/m3 | 1006.8 kg/m3
x1 = 0.398 | 1029.8 kg/m3 and 1028.4 kg/m3 | 1006.1 kg/m3 and 1005.1 kg/m3
x1 = 0.497 | 1023.4 kg/m3 | 1000.6 kg/m3
x1 = 0.498 | 1025.5 kg/m3 | 996.6 kg/m3
x1 = 0.591 | 1016.8 kg/m3 | 990.3 kg/m3
x1 = 0.597 | 1019.4 kg/m3 | 999 kg/m3
x1 = 0.692 | 1013.5 kg/m3 | 982.6 kg/m3
x1 = 0.696 | 1013.5 kg/m3 | 989.6 kg/m3
x1 = 0.793 | 1005.7 kg/m3 | 976 kg/m3
x1 = 0.796 | 1003.9 kg/m3 | 976.4 kg/m3
x1 = 0.895 | 997.4 kg/m3 | 968.9 kg/m3
x1 = 0.897 | 999.2 kg/m3 | 969.3 kg/m3
x1 = 0.995 | 996 kg/m3 and 994.9 kg/m3 | 967.3 kg/m3 and 964.4 kg/m3

O [water]
[1]
Conditions | mass density [kg/m3]
323.15 K | 988.04
333.15 K | 983.2

O [water] + C1CCNC1
Conditions | mass density [kg/m3]
[2], 323.15 K, x2 = 0 | 988.04

O [water] + C1COCCN1
Conditions | mass density [kg/m3]
[2], 333.15 K, x2 = 0 | 983.2
